Experimental data from patent US12358919B2, “Antibacterial compounds” (Universita' degli Studi di Siena, priority 2019, dated 2025).
Where two headings read alike, the source gives them in different places. Where a SMILES comes first, the peptide text is derived from it. Bridges are numbered along the chain shown (N, C = ends). [ ]: non-standard residue; d: D form. The star is where a group is joined. X1 = CC[C@H](C)CCCCC(=O)*; Dab = NCC[C@H](N)C(=O)O

What was measured:
E. coli CCUG^T = experiment: Chequerboard analysis with polymyxin E1 (average FIC index); format: cell-based, Escherichia coli; conditions: compound + polymyxin E1
K. pneumoniae ATCC 13833 = experiment: as above; format: cell-based, Klebsiella pneumoniae; conditions: compound + polymyxin E1
[1] = system: Acinetobacter baumannii ATCC 17978; experiment: microbe, parasite or virus in culture; format: cell-based; conditions: for Potentiation fold: ratio MICcompound/MICcompound+polymyxin E; for MIC in presence of colistin: with 0.25xMIC polymyxin E1 (0.25 mg/L); for MIC: Acinetobacter baumannii, ATCC17978
Experimental: (§1) Growth inhibition or killing of bacteria was investigated using conventional methods widely described in the scientific literature. Parameters such as the Minimum Inhibitory Concentration (MIC) were determined as described in Clinical Laboratory Standard Institute (CLSI) document M07 “Methods for Dilution Antimicrobial Susceptibility Tests for Bacteria That Grow Aerobically, 11th Edition” (2018). Synergistic activity of the compounds described in the present specification were determined by measuring the variation of the MIC's compound in the absence and presence of a sub-inhibitory concentration of a suitable antibacterial agent, such as polymyxin E1. Furthermore, the Fractional Inhibitory Concentrations (FICs) were measured using a chequerboard analysis to determine the average FIC index (FICI), whose value is known to characterize the interaction between two compounds and/or drugs (≤0.5, synergistic interaction; >0.5 and <2, no interaction, additive effect; ≥2, antagonistic interaction). Furthermore, the selectivity of the compounds was investigated by measuring their cytotoxic effect on mammalian cell lines (e.g. HeLa cells).
(§2) Several methods were used to investigate the synergistic activity of the compounds, including (a) the determination of the MIC in the presence of a sub-inhibitory concentration of a suitable antibacterial agent, (b) the determination of the average FICI using a chequerboard analysis and (c) the time-kill curve analysis of a suitable agent (at a sub-inhibitory concentration) in the absence and presence of the pyrazolo[4,3-b]pyridin-6-carboxamide compound at a fixed concentration of 2 or 8 mg/L.
(§3) The MIC of the compound was determined alone and in the presence of a fixed and sub-inhibitory concentration of a suitable antibacterial agent of the polymyxin class, such as polymyxin E1 (colistin). The potentiation fold was computed as the ratio MICcompound/MICcompound+polymyxin E. Tested organisms included Escherichia coli CCUG^TKlebsiella pneumoniae ATCC 13833 and Acinetobacter baumannii ATCC 17978, which show a colistin MIC of 0.5, 0.5 and 1 mg/L, respectively.

[2] = system: Klebsiella pneumoniae ATCC 13833; experiment: microbe, parasite or virus in culture; format: cell-based; conditions: for Potentiation fold: ratio MICcompound/MICcompound+polymyxin E; for MIC in presence of colistin: with 0.25xMIC polymyxin E1 (0.12 mg/L); for MIC: Klebsiella pneumoniae, ATCC13833
Experimental: as §1, §2, §3

Escherichia coli CCUG^T = experiment: microbe, parasite or virus in culture; format: cell-based; conditions: for Potentiation fold: ratio MICcompound/MICcompound+polymyxin E; for MIC in presence of colistin: with 0.25xMIC polymyxin E1 (0.12 mg/L); for MIC: Escherichia coli
Experimental: as §1, §2, §3

K. pneumoniae SI-4B = experiment: Chequerboard analysis with polymyxin E1 (average FIC index); format: cell-based, Klebsiella pneumoniae; conditions: K. pneumoniae SI-4B (colistin-resistant); compound + polymyxin E1
[3] = system: Streptococcus pyogenes ATCC 12344; experiment: MIC, broth microdilution (direct antibacterial activity); format: cell-based
Experimental: as §1
(§4) The MIC values were determined using the broth microdilution method as described in document M07 using Mueller-Hinton broth as culture medium and an initial bacterial inoculum size of 5×10^5 CFU/mL, with a final volume of 100 μL per well in a 96-well microplate. Bacterial strains were Bacillus subtilis ATCC 6633, Enterococcus faecalis ATCC 29212, Streptococcus pyogenes ATCC 12344 and Staphylococcus aureus ATCC 25923. The tested compound concentration ranged from 512 to 0.25 mg/L. Plates were incubated for 18-24 hours at 35±2° C. prior to results analysis.

[4] = system: Enterococcus faecalis ATCC 29212; experiment: as above; format: cell-based
Experimental: as §1, §4

[5] = system: Staphylococcus aureus ATCC 25923; experiment: as above; format: cell-based
Experimental: as §1, §4

[6] = system: Bacillus subtilis ATCC 6633; experiment: as above; format: cell-based
Experimental: as §1, §4

A. baumannii ATCC 17978 = experiment: Chequerboard analysis with polymyxin E1 (average FIC index); format: cell-based, Acinetobacter baumannii; conditions: compound + polymyxin E1
[7] = system: polymyxin E1-resistant Acinetobacter baumannii (strain N50) clinical isolate; format: cell-based; conditions: A. baumannii N50; colistin alone
Experimental: as §1
“Chequerboard” method was used to further investigate the synergistic activity of pyrazolo[4,3-b]pyridin-6-carboxamides when this compounds are combined with polymyxin E1. […]

[8] = system: Acinetobacter baumannii (N50 strain), multidrug-resistant clinical isolate resistant to polymyxin E1; experiment: Time-kill curve analysis (bactericidal activity); format: cell-based; conditions: polymyxin E1 2 mg/L alone; inoculum 10^5 CFU/mL
Experimental: FIG. 1: bactericidal activity on Acinetobacter baumannii (N50 strain) of polymyxin E1, 2 mg/L (square); polymyxin E1, 2 mg/L+compound Ib 32 mg/L (triangles); control (circles).
as §2
The kinetics of bacterial killing offers an additional mean to characterize the antibacterial activity of compounds, also in combination with other antimicrobial agents. Compounds or a combination thereof are defined as bactericides when the viable bacterial load is decreased by at least 3 log10 (EUCAST, cit.).
This analysis was carried with a multidrug-resistant Acinetobacter baumannii clinical isolate showing resistance to polymyxin E1. The time-kill curves were generated starting from a bacterial inoculum of 10^5 CFU/mL. Bacterial count was determined at several time intervals in the absence (control) or presence of 2 mg/L polymyxin E1 (corresponding to the resistance breakpoint, EUCAST, cit.) supplemented with 32 mg/L of compound Ib (FIG. 1).

[9] = A. baumannii ATCC 17978, compound alone, read-out: MIC
[10] = K. pneumoniae ATCC 13833, compound alone, read-out: MIC
[11] = E. coli CCUG^T, compound alone, read-out: MIC
[12] = ATCC12344, S. pyogenes ATCC 12344, compound alone, 18-24 h, read-out: MIC
[13] = ATCC29212, E. faecalis ATCC 29212, compound alone, 18-24 h, read-out: MIC
[14] = ATCC25923, S. aureus ATCC 25923, compound alone, 18-24 h, read-out: MIC
[15] = ATCC6633, B. subtilis ATCC 6633, compound alone, 18-24 h, read-out: MIC

SMILES: CCCCn1c2c(c(O)c(C(=O)NC34CC5CC(CC(C5)C3)C4)c1=O)N(CCO)NC2 [Ip, N-(Adamantan-1-yl)-4-(1-butyl)-4,5-dihydro-7-hydroxy-1-(2-hydroxyethyl)-5-oxo-2H-pyrazolo[4,3-b]pyridin-6-carboxamide]
- Average FIC index (E. coli CCUG^T): 0.33
- Average FIC index (K. pneumoniae ATCC 13833): 0.32
- Potentiation fold ([1]; A. baumannii ATCC 17978): ≥16
- MIC in presence of colistin ([1]; A. baumannii ATCC 17978): 32 µg/mL
- MIC [1, 9]: > 512 µg/mL
- Potentiation fold ([2]; K. pneumoniae ATCC 13833): ≥32
- MIC in presence of colistin ([2]; K. pneumoniae ATCC 13833): 16 µg/mL
- MIC [2, 10]: > 512 µg/mL
- Potentiation fold (Escherichia coli CCUG^T; E. coli CCUG^T): ≥16
- MIC in presence of colistin (Escherichia coli CCUG^T; E. coli CCUG^T): 32 µg/mL
- MIC (Escherichia coli CCUG^T; [11]): > 512 µg/mL

SMILES: CCCCCn1c(=O)c(C(=O)NC23CC4CC(CC(C4)C2)C3)c(O)c2nn(CCO)cc21 [In, N-(Adamantan-1-yl)-4,5-dihydro-7-hydroxy-2-(2-hydroxyethyl)-5-oxo-4-(1-pentyl)-2H-pyrazolo[4,3-b]pyridin-6-carboxamide]
- Average FIC index (K. pneumoniae ATCC 13833): 0.32
- Potentiation fold ([1]; A. baumannii ATCC 17978): ≥16
- MIC in presence of colistin ([1]; A. baumannii ATCC 17978): 32 µg/mL
- MIC [1]: > 512 µg/mL
- Potentiation fold ([2]; K. pneumoniae ATCC 13833): ≥32
- MIC in presence of colistin ([2]; K. pneumoniae ATCC 13833): 16 µg/mL
- MIC [2]: > 512 µg/mL
- Potentiation fold (Escherichia coli CCUG^T; E. coli CCUG^T): ≥8
- MIC in presence of colistin (Escherichia coli CCUG^T; E. coli CCUG^T): 64 µg/mL
- MIC (Escherichia coli CCUG^T): > 512 µg/mL

SMILES: CC(C)n1c(=O)c(C(=O)NC23CC4CC(CC(C4)C2)C3)c(O)c2nn(C)cc21 [Ix, N-(Adamantan-1-yl)-4,5-dihydro-7-hydroxy-2-methyl-5-oxo-4-(2-propyl)-2H-pyrazolo[4,3-b]pyridin-6-carboxamide]
- Average FIC index (K. pneumoniae ATCC 13833): 0.33
- Average FIC index (K. pneumoniae SI-4B): 0.39
- MIC ([3]; ATCC12344): 32 µg/mL
- MIC ([4]; ATCC29212): 32 µg/mL
- MIC ([5]; ATCC25923): 128 µg/mL
- MIC ([6]; ATCC6633): 64 µg/mL
- Average FIC index (A. baumannii ATCC 17978): 0.27
- Potentiation fold ([1]; A. baumannii ATCC 17978): ≥64
- MIC in presence of colistin ([1]; A. baumannii ATCC 17978): 8 µg/mL
- MIC [1]: > 512 µg/mL
- Potentiation fold ([2]; K. pneumoniae ATCC 13833): ≥64
- MIC in presence of colistin ([2]; K. pneumoniae ATCC 13833): 8 µg/mL
- MIC [2]: > 512 µg/mL
- Potentiation fold (Escherichia coli CCUG^T; E. coli CCUG^T): ≥64
- MIC in presence of colistin (Escherichia coli CCUG^T; E. coli CCUG^T): 8 µg/mL
- MIC (Escherichia coli CCUG^T): > 512 µg/mL

SMILES: CCCCn1c(=O)c(C(=O)N[C@@H](Cc2ccccc2)C(=O)OC(C)(C)C)c(O)c2nn(C)cc21 [Iad, 1,1-Dimethylethyl (S)-2-[4-(1-butyl)-4,5-dihydro-7-hydroxy-2-methyl-5-oxo-2H-pyrazolo[4,3-b]pyridin-6-carboxamido]-3-phenylpropanoate]
- MIC [3, 12]: 64 µg/mL
- MIC [4, 13]: 128 µg/mL
- MIC [5, 14]: 256 µg/mL
- MIC [6, 15]: 32 µg/mL
- Potentiation fold ([1]; A. baumannii ATCC 17978): ≥4
- MIC in presence of colistin ([1]; A. baumannii ATCC 17978): 128 µg/mL
- MIC [1, 9]: > 512 µg/mL
- Potentiation fold ([2]; K. pneumoniae ATCC 13833): ≥16
- MIC in presence of colistin ([2]; K. pneumoniae ATCC 13833): 32 µg/mL
- MIC [2, 10]: > 512 µg/mL
- Potentiation fold (Escherichia coli CCUG^T; E. coli CCUG^T): ≥16
- MIC in presence of colistin (Escherichia coli CCUG^T; E. coli CCUG^T): 32 µg/mL
- MIC (Escherichia coli CCUG^T; [11]): > 512 µg/mL

SMILES: CCCCn1c(=O)c(C(=O)Nc2ccc(F)cc2)c(O)c2nn(C)cc21 [Iae, 4-(1-Butyl)-4,5-dihydro-N-(4-fluorophenyl)-7-hydroxy-2-methyl-5-oxo-2H-pyrazolo[4,3-b]pyridin-6-carboxamide]
- MIC [3, 12]: 32 µg/mL
- MIC [4, 13]: 32 µg/mL
- MIC [5, 14]: 128 µg/mL
- MIC [6, 15]: 128 µg/mL
- Potentiation fold ([1]; A. baumannii ATCC 17978): ≥16
- MIC in presence of colistin ([1]; A. baumannii ATCC 17978): 32 µg/mL
- MIC [1, 9]: > 512 µg/mL
- Potentiation fold ([2]; K. pneumoniae ATCC 13833): ≥2
- MIC in presence of colistin ([2]; K. pneumoniae ATCC 13833): 256 µg/mL
- MIC [2, 10]: > 512 µg/mL
- Potentiation fold (Escherichia coli CCUG^T; E. coli CCUG^T): ≥2
- MIC in presence of colistin (Escherichia coli CCUG^T; E. coli CCUG^T): 256 µg/mL
- MIC (Escherichia coli CCUG^T; [11]): > 512 µg/mL

SMILES: CCCCn1c(=O)c(C(=O)NC2CCCc3ccccc32)c(O)c2nn(C)cc21 (stereo not drawn) [It, 4-(1-Butyl)-4,5-dihydro-7-hydroxy-2-methyl-5-oxo-N-(1,2,3,4-tetrahydro-1-naphthyl)-2H-pyrazolo[4,3-b]pyridin-6-carboxamide]
- MIC [3, 12]: 64 µg/mL
- MIC [4, 13]: 64 µg/mL
- MIC [5, 14]: 32 µg/mL
- MIC [6, 15]: 32 µg/mL
- Potentiation fold ([1]; A. baumannii ATCC 17978): ≥32
- MIC in presence of colistin ([1]; A. baumannii ATCC 17978): 16 µg/mL
- MIC [1, 9]: > 512 µg/mL
- Potentiation fold ([2]; K. pneumoniae ATCC 13833): ≥32
- MIC in presence of colistin ([2]; K. pneumoniae ATCC 13833): 16 µg/mL
- MIC [2, 10]: > 512 µg/mL
- Potentiation fold (Escherichia coli CCUG^T; E. coli CCUG^T): ≥16
- MIC in presence of colistin (Escherichia coli CCUG^T; E. coli CCUG^T): 32 µg/mL
- MIC (Escherichia coli CCUG^T; [11]): > 512 µg/mL

SMILES: CC[C@H](C)CCCCC(=O)N[C@@H](CCN)C(=O)N[C@H](C(=O)N[C@@H](CCN)C(=O)N[C@H]1CCNC(=O)[C@H]([C@@H](C)O)NC(=O)[C@H](CCN)NC(=O)[C@H](CCN)NC(=O)[C@H](CC(C)C)NC(=O)[C@@H](CC(C)C)NC(=O)[C@H](CCN)NC1=O)[C@@H](C)O [colistin, polymyxin E1, reference compound] (X1-[Dab]T[Dab][Dab][Dab][dL]L[Dab][Dab]T; lactam 4-C (inferred); N-terminus assumed)
- MIC Colistin [7]: 8 µg/mL
- bactericidal activity (killing of the bacterial population) [8]: unable to achieve complete and irreversible killing of the bacterial population
- colistin MIC ([1]; Acinetobacter baumannii ATCC 17978, colistin alone): 1 µg/mL
- colistin MIC ([2]; Klebsiella pneumoniae ATCC 13833, colistin alone): 0.5 µg/mL
- colistin MIC (Escherichia coli CCUG^T; Escherichia coli CCUG^T, colistin alone): 0.5 µg/mL
